Measurements: patent US5053402A, “Certain glyceryl phosphate-cyclic ammonium compounds useful for treating hypertension” (Nippon Chemiphar Co., Ltd., priority 1986, dated 1991)

Columns and labels:
[1] = test system: blood pressure; test: Blood Pressure Reducing Action: Intravenous Injection; type: in vivo, Male Wister rats; settings: anesthetized rat; for ED (50 mmHg reduction): iv, from dose-response curve, read-out: MABP50 (dose required for reducing average blood pressure by 50 mmHg); for Reduction of Blood Pressure: i.v.
Protocol: Male Wister rats (mean body weight: 420 g) were anesthetized by intra-peritoneal injection of 50 mg/kg of pentobarbital sodium and were fixed on their backs, and their blood pressures were measured at left femoral artery. Subsequently, a compound to be tested was dissolved in a saline solution containing 0.25% bovine serum albumin and injected into the rat through the right femoral vein.
A dose-response curve was prepared from the above values to determine a dose required for reducing average blood pressure by 50 mmHg (MABP50). MABP50 for the above compound was 21 ng/kg.

[2] = test system: platelet; test: Blood Platelet Agglutination Action; type: cell-based, male Japanese white rabbit; settings: Oryctolagus cuniculus; for EC50: from agglutination curve
Protocol: A male Japanese white rabbit was anesthetized by pentobarbital, and a blood was collected in aqueous 3.13% sodium citrate solution at its carotid. The blood containing 1/10 volume ratio of the sodium citrate solution was treated in a conventional manner to give a platelet rich plasma (PRP) and a platelet poor plasma (PPP) for performing the following experiment.
PRP was diluted with PPP to give a sample containing platelets at 300,000/mm^3.
Agglutination of platelet was determined by means of Platelet Aggregation Tracer PAT-4A(available from Niko Bioscience Co., Ltd., Japan). 10 μl of a test solution was added to 190 μl of PRP to give a final solution of 2×10^-10 to 2×10^-4 M, and an agglutination curve is recorded. For the preparation of the test solution, a saline solution containing 0.25% bovine serum albumin.
Agglutination of Platelet

[3] = test system: blood pressure; test: Blood Pressure Decreasing Action: Oral Administration; type: in vivo, Spontaneously hypertensive male rats; settings: 10 mg/kg
Protocol: Spontaneously hypertensive male rates (average body weight: 359 g) were etherized and fixed on their backs. Blood pressure was measured for each rat through cannulation at its left femoral artery. A compound to be tested was dissolved in a distilled water and the resulting aqueous solution was administered orally.

| SMILES | EC50 ([2]; table) | ED (50 mmHg reduction) [1] | Reduction of Blood Pressure ([3]; after 30 min) | Reduction of Blood Pressure ([3]; after 1 hr) | Reduction of Blood Pressure ([3]; after 2 hrs) | Reduction of Blood Pressure ([3]; after 3 hrs) | Reduction of Blood Pressure ([3]; after 4 hrs) | Reduction of Blood Pressure ([3]; after 5 hrs) | Reduction of Blood Pressure ([3]; after 6 hrs) | other results |
| --- | --- | --- | --- | --- | --- | --- | --- | --- | --- | --- |
| CCCCCCCCCCCCCCCCOCC(COP(=O)([O-])OC1CC[N+](C)(C)CC1)OC(C)=O (stereo not drawn) [Example 2, 2-Acetyloxy-3-hexadecyloxypropyl 1,1-dimethylpiperidinio-4-yl phosphate] | 8 nM | 0.058 µg/kg | – | – | – | – | – | – | – | – |
| CCCCCCCCCCCCCCCCOC(C)C(COP(=O)([O-])OC1CC[N+](C)(C)C1)OC(C)=O (stereo not drawn) [Example 3, 2-Acetyloxy-3-hexadecyloxybutyl 1,1-dimethylpyrrolidinio-3-yl phosphate] | 400 nM | 8.5 µg/kg | -49.7 mmHg | -60.7 mmHg | -74.3 mmHg | -82.0 mmHg | -84.7 mmHg | -83.7 mmHg | -82.3 mmHg | – |
| CCCCCCCCCCCCCCCCOC(C)C(COP(=O)([O-])OC1CCC[N+](C)(C)C1)OC(C)=O (stereo not drawn) [Example 4, 2-Acetyloxy-3-hexadecyloxybutyl 1,1-dimethylpiperidinio-3-yl phosphate] | 22 nM | 0.34 µg/kg | -66.0 mmHg | -68.0 mmHg | -73.0 mmHg | -72.3 mmHg | -66.7 mmHg | -63.0 mmHg | -66.7 mmHg | – |
| CCCCCCCCCCCCCCCCOC(C)C(COP(=O)([O-])OC1CC[N+](C)(C)CC1)OC(C)=O (stereo not drawn) [Example 5, 2-Acetyloxy-3-hexadecyloxybutyl 1,1-dimethylpiperidinio-4-yl phosphate] | 630 nM | 8.6 µg/kg | +5.0 mmHg | 0 mmHg | -14.5 mmHg | -19.0 mmHg | -22.5 mmHg | -26.0 mmHg | -28.0 mmHg | – |
| CCCCCCCCCCCCCCCCOCC(COP(=O)([O-])OC1CC[N+](C)(C)C1)OC(C)=O (stereo not drawn) [Example 8, 2-Acetyloxy-3-hexadecyloxypropyl 1,1-dimethylpyrrolidinio-3-yl phosphate] | – | 0.021 µg/kg | – | – | – | – | – | – | – | Reduction of Blood Pressure ([1]; 1 ng/kg): -4.5 ± 1.5 mmHg; Reduction of Blood Pressure ([1]; 5 ng/kg): -21.5 ± 8.0 mmHg; Reduction of Blood Pressure ([1]; 10 ng/kg): -47.5 ± 0.5 mmHg; Reduction of Blood Pressure ([1]; 50 ng/kg): -52.6 ± 4.6 mmHg; Reduction of Blood Pressure ([1]; 100 ng/kg): -67.0 ± 3.1 mmHg; activation at 2 µM ([2]; 2 × 10^-6 M, PRP = 0%, PPP = 100%): 86%; activation at 0.2 µM ([2]; 2 × 10^-7 M, PRP = 0%, PPP = 100%): 81%; activation at 0.02 µM ([2]; 2 × 10^-8 M, PRP = 0%, PPP = 100%): 67%; activation at 0.002 µM ([2]; 2 × 10^-9 M, PRP = 0%, PPP = 100%): 18%; activation at 0.0002 µM ([2]; 2 × 10^-10 M, PRP = 0%, PPP = 100%): 0%; EC50 [2]: 18 nM |

Now from value to molecule, other results behind:

| EC50 ([2]; table) | SMILES | ED (50 mmHg reduction) [1] | Reduction of Blood Pressure ([3]; after 30 min) | Reduction of Blood Pressure ([3]; after 1 hr) | Reduction of Blood Pressure ([3]; after 2 hrs) | Reduction of Blood Pressure ([3]; after 3 hrs) | Reduction of Blood Pressure ([3]; after 4 hrs) | Reduction of Blood Pressure ([3]; after 5 hrs) | Reduction of Blood Pressure ([3]; after 6 hrs) | other results |
| --- | --- | --- | --- | --- | --- | --- | --- | --- | --- | --- |
| 0.6 nM | CCCCCCCCCCCCCCCCOCC(COP(=O)([O-])OC1CCC[N+](C)(C)C1)OC(C)=O (stereo not drawn) [Example 1, 2-Acetyloxy-3-hexadecyloxypropyl 1,1-dimethylpiperidinio-3-yl phosphate] | 0.013 µg/kg | – | – | – | – | – | – | – | – |
| 5000 nM | CCCCCCCCCCCCCCCCOCC(OC(C)=O)C(OP(=O)([O-])OC1CC[N+](C)(C)C1)C(C)C (stereo not drawn) [Example 6, 2-Acetyloxy-3-hexadecyloxy-1-(1-methylethyl)-propyl 1,1-dimethylpyrrolidinio-3-yl phosphate] | 48 µg/kg | – | – | – | – | – | – | – | – |
